Laboratory results reported in patent US10550130B2, “Benzo-thiazolo-imidazole compounds and uses thereof” (KING SAUD UNIVERSITY, priority 2015, dated 2020).

Assays:
[1] = Apparent toxicity (body weight, general signs) in tumor-bearing mice; assay type: in vivo; conditions: 200 mg/kg intraperitoneal, three doses
Procedure: (§1) Nude mice (Jackson Laboratories, Bar Harbor, Me., USA) were injected with 4×10^6 cells of MDA-MB-468 in the mammary pad and tumor size was measured weekly using a caliper. When the tumor reached approximately 100 mm^3 diameter the mice were divided into a control group and a group treated with KSA-101696 200 mg/kg via intraperitoneal injection (three cycles every four days). Apparent toxicity as determined by body weight loss is recorded by measuring total body weight. Breeding, care and sacrifice of the animals were carried out in accordance with the protocols approved by the Animal Care and Use Committee of the King Faisal Specialist Hospital and Research Centre.
(§2) Because of the observed selective cytotoxic effect of compound KSA-101696 against cancer cells and the tolerance of normal cells and normal stem cells in vitro, a high dose of compound KSA-101696 (200 mg/kg) was used on mice.

MDA-MB-231 cells = test: Migration assay; assay type: cell-based; conditions: Homo sapiens, 2.5 μM to 20 μM, read-out: IC50, migration capacity
Procedure: To assess the metastatic potential of tumor cells, their migration and invasion was evaluated using the 24-well BD BioCoat Matrigel Invasion Chamber as per the manufacturer guideline (BD Bioscience). In brief, 750 μl of migration buffer (serum-free media with or without treatment) or chemoattractants (serum-containing media) were added to the lower wells. Cells were washed three times in migration media and 500 μl (1-2×10^5) of cells were added to the upper wells separated by an 8 micron pore size PET membrane with a thin layer of matrigel basement membrane matrix (for invasion) or without (for migration). The membranes were stained with Diff Quick stain (Fisher Scientific) after removing the non-migrated cells from the top of the membrane with Q-tips. After air drying, the membranes were cut and mounted on slides with oil and cells that had migrated to the underside of the filter were counted using a light microscope (Zeiss Axio Observer) in five randomly selected fields (magnification: 40×). Each assay was performed in triplicate and repeated at least five times. The results were expressed as mean±SD of migrating cells per field counted (FIGS. 6A-6B).

[2] = system: ALDH-positive SKBR3 cells; test: Aldefluor assay (ALDH-positive cells); assay type: cell-based
Procedure: SKBr3 cells with or without treatment harvested, washed and incubated in aldefluor assay buffer containing an ALDH substrate (BAAA). For negative control, half of the cells of each sample was removed to another FACS tube and incubated under identical condition with DEAB (diethylaminobenzaldehyde), a specific inhibitor of ALDH enzyme.
Because SKBR3 cells include, among various cell lines tested, a particularly high percentage of ALDH-positive cells, SKBR3 cells were selected to evaluate whether KSA-101696 inhibits ALDH-positive cells in vitro.
After two days of treatment with 2.5 μM of KSA-101696, a more that 50% reduction in ALDH-positive cell percentage was observed (FIG. 5A).

MCF-7 cells = test: Flow cytometric analysis of cellular DNA content (cell cycle distribution); assay type: cell-based; conditions: 20 μM, 8, 16, 12 and 48 h
Procedure: 2×10^6 cells were fixed in 1 ml ethanol (70%) for 60 min at room temperature. Harvested cells were resuspended in 1 ml Na citrate (50 mM) containing 250 μg RNase A and incubated at 50° C. for 60 min. Next, cells were resuspended in the same buffer containing 4 μg propidium iodide (PI) and incubated for 30 min before being analyzed by flow cytometry (Becton Dickinson, San. Jose, Calif., USA). The percentage of cells in various cell cycle phases was determined by using Cell Quest Pro software (Becton Dickinson).
To gain insight into the mechanism by which anti-proliferation was achieved, the effect on cell cycle distribution was investigated by fluorescence-activated cell sorting (FACS) analysis. […] This was also accompanied by a compensatory decrease in G1 phase cells. Based on histograms the compound blocks the cells on early stage of mitosis, thereby inhibiting the transition of the cells to complete mitosis.

MDA-MB-468 tumors = test: Antitumor activity in mice; assay type: in vivo, Nude mice
Procedure: as §1, §2

Numb = test: Immunofluorescence of Numb in MDA-MB-231 breast cancer cells; assay type: cell-based; conditions: MDA-MB-231 cells; 0.01, 0.1, 1 or 10 μM
Procedure: MDA-MB-231 breast cancer cells were treated either with vehicle (control) or with 0.01 μM, 0.1 μM, 1 μM or 10 μM final concentration of doxorubicin, taxotere or KSA-101696. Then, the cells were cytospun to glass slides by centrifugation at 800 rpm for 3 min. Slides were then air-dried overnight and 4% formaldehyde fixed for 10 min. For staining, the cell membrane was permeabilized with 0.5% triton-X (Sigma) followed by overnight incubation with primary antibodies (anti-Numb, Abcam) and (anti-intracellular Notch-1, Cell Signalling) at 1:100. Cells were washed and stained with AlexaFluor goat anti-rabbit IgG 488 (Invitrogenat) 1:400 for 30 minutes. 300 nM DAPI (Invitrogen, Carlsbad, Calif., USA) was added for 10 minutes to counterstain the nuclei. Slides were mounted and immunofluorescence was visualized using BD Pathway 855 microscope.
Numb exerts its functional role on cell fate decisions by antagonizing Notch signaling activities. The molecular mechanisms underlying this relationship appear to rely on the ubiquitination of the membrane bound Notch-1 receptor and the subsequent degradation of its NICD (Notch intracellular domain) following receptor activation.

[3] = system: normal cells MCF-10 A, HSFN1 (human foreskin cells) and BM4 (bone marrow derived mesenchymal stem cells); test: Annexin V binding by flow cytometry (apoptosis) in normal cells; assay type: cell-based; conditions: 20 μM, 48 h
Procedure: It is known that loss of phospholipid asymmetry of the plasma membrane is an early event of apoptosis. The annexin V binds to negatively charged phospholipids, like phosphatidylserine. During apoptosis, the cells react to annexin V once chromatin condenses but before the plasma membrane loses its ability to exclude propidium iodide (PI).
Annexin-V staining was performed by using Vybrant Apoptosis Assay Kit #2 (Molecular Probes) following the manufacturer's recommendations. Annexin-V stained cells were analyzed by flow cytometry, measuring the fluorescence emission between 515 nm to 545 nm.
To evaluate the selective-apoptotic effect of the compound in cancer cells but not normal cells, the cancer cell lines SKBR3, MDA-MB-468, and normal cells MCF-10 A, HSFN1 (human foreskin cells) and BM4 (bone marrow derived mesenchymal stem cells) were used. […] Upon treatment of cells with 20 μM for 48 h, cells were stained with Annexin-V and PI and binding of Annexin-V and PI to the cells was determined by flow cytometry.

Compound: COc1ccc(-c2csc3nc4ccccc4n23)cc1 [KSA-101696, 3-(4-methoxyphenyl)benzo[4,5]imidazo[2,1-b]thiazole]
- signs of general toxicity [1]: no convulsions, CNS stimulation, diarrhea, increased urination, miosis or mydriasis
- weight loss [1]: no measurable weight loss
- IC50 (MDA-MB-231 cells): ~7.5 µM
- reduction in ALDH-positive cell percentage ([2]; 2.5 μM, two days): > 50%
- IC50 ([2]; Homo sapiens, SK-BR-3): ~2000 nM
- cell cycle distribution (MCF-7 cells): accumulation of cells in G2/M phase in a time-dependent manner
- reduction (shrinking) of tumor volume (MDA-MB-468 tumors; 200 mg/kg intraperitoneal, three doses, mice bearing MDA-MB-468 tumors): 70%
- ED50 (MDA-MB-468 tumors; Mus musculus, MDA-MB-468, ip, intraperitoneal, read-out: ED50 (dose that shrinks the tumor volume by 50% at the end of treatment)): 50 mg/kg
- Numb expression (immunofluorescence microscopy) (Numb): induced Numb
- apoptosis (Annexin-V and PI) in normal cells [3]: little apoptotic effect
